Laboratory results as given in patent publication US20190010158A1, “ANTITUMOR EFFECT POTENTIATOR COMPRISING PYRROLOPYRIMIDINE COMPOUND” (TAIHO PHARMACEUTICAL CO., LTD, priority 2015, published 2019).
Values joined by “and” are separate entries in the source; they are usually repeats but may differ in a detail not shown here. Identical values can stand only once. Like-named read-outs stand apart in the source and are kept apart here.

Key:
[1] = test system: tumor cell lines shown in Table 24; assay: Example 2: combined use with tyrosine kinase inhibitor, cell growth inhibition test (IC50 ratio, CI); format: cell-based; conditions: for Comprehensive Evaluation: combined use with Reference Example Compound 55
[2] = test system: human acute T lymphoblastic leukemia CCRF-CEM cell lines; assay: Cell growth inhibition 1 (CellTiter-Glo); format: cell-based; conditions: culture with test compound 72 hours
[3] = SNU-16, Reference Example Compound 55:other compound 1:3.3, at ED50
[4] = SNU-16, Reference Example Compound 55:other compound 1:10, at ED50

Structure (SMILES): Cc1cc(Nc2ncnc3ccc(NC4=NC(C)(C)CO4)cc23)ccc1Oc1ccn2ncnc2c1 [ARRY380]
- CI ([1]; A431, Reference Example Compound 55:other compound 1:36 (only ratio calculated), at ED50): 0.34
- Comprehensive Evaluation ([1]; A431): Synergism (0.3-0.7)

Structure (SMILES): CN(C)C/C=C/C(=O)Nc1cc2c(Nc3ccc(F)c(Cl)c3)ncnc2cc1O[C@H]1CCOC1 [Afatinib, afatinib]
- CI ([1]; A549, Reference Example Compound 55:other compound 1:1.7, at ED50): 0.70
- CI ([1]; A549, Reference Example Compound 55:other compound 1:5, at ED50): 0.48
- Comprehensive Evaluation ([1]; A549): Synergism (0.3-0.7)

Structure (SMILES): CCc1cc2c(cc1N1CCC(N3CCOCC3)CC1)C(C)(C)c1[nH]c3cc(C#N)ccc3c1C2=O [Alectinib, alectinib]
- CI ([1]; MM.1S, Reference Example Compound 55:other compound 1:3000, at ED50): 0.58
- CI ([1]; MM.1S, Reference Example Compound 55:other compound 1:9000, at ED50): 0.59
- Comprehensive Evaluation ([1]; MM.1S): Synergism (0.3-0.7)

Structure (SMILES): CC1(COc2ccc3c(c2)ncn3-c2ccc3cccc(N4CCC(N)CC4)c3n2)COC1 [Crenolanib, crenolanib]
- CI ([1]; MV4-11, Reference Example Compound 55:other compound 1:3.7, at ED50): 0.91
- CI ([1]; MV4-11, Reference Example Compound 55:other compound 1:11, at ED50): 0.83
- Comprehensive Evaluation ([1]; MV4-11): Additive (0.9-1.10)

Structure (SMILES): C[C@@H](Oc1cc(-c2cnn(C3CCNCC3)c2)cnc1N)c1c(Cl)ccc(F)c1Cl [Crizotinib, crizotinib]
- CI ([1]; MM.1S, Reference Example Compound 55:other compound 1:37, at ED50): 0.87
- CI ([1]; MM.1S, Reference Example Compound 55:other compound 1:111, at ED50): 0.74
- Comprehensive Evaluation ([1]; MM.1S): Slight

Structure (SMILES): Cc1nc(Nc2ncc(C(=O)Nc3c(C)cccc3Cl)s2)cc(N2CCN(CCO)CC2)n1 [Dasatinib, dasatinib]
- CI ([1]; HCT116, Reference Example Compound 55:other compound 1:300, at ED50): 0.83
- CI ([1]; HCT116, Reference Example Compound 55:other compound 1:900, at ED50): 0.96
- Comprehensive Evaluation ([1]; HCT116): Additive (0.9-1.10)

Structure (SMILES): C#Cc1cccc(Nc2ncnc3cc(OCCOC)c(OCCOC)cc23)c1 [Erlotinib, erlotinib]
- CI [1]: 0.45
- CI ([1]; A549, Reference Example Compound 55:other compound 1:10, at ED50): 0.54
- Comprehensive Evaluation ([1]; A549): Synergism (0.3-0.7)

Structure (SMILES): COc1cc2ncnc(Nc3ccc(F)c(Cl)c3)c2cc1OCCCN1CCOCC1 [Gefitinib, gefitinib]
- CI ([1]; A431, Reference Example Compound 55:other compound 1:5, at ED50): 0.33
- CI ([1]; A431, Reference Example Compound 55:other compound 1:15, at ED50): 0.32
- Comprehensive Evaluation ([1]; A431): Synergism (0.3-0.7)

Structure (SMILES): Cc1ccc(NC(=O)c2ccc(CN3CCN(C)CC3)cc2)cc1Nc1nccc(-c2cccnc2)n1 [Imatinib, imatinib]
- CI [1]: 0.31 and 0.35
- Comprehensive Evaluation ([1]; A549): Synergism (0.3-0.7)

Structure (SMILES): CS(=O)(=O)CCNCc1ccc(-c2ccc3ncnc(Nc4ccc(OCc5cccc(F)c5)c(Cl)c4)c3c2)o1 [Lapatinib, lapatinib]
- CI ([1]; A431, Reference Example Compound 55:other compound 1:10, at ED50): 0.15
- CI ([1]; A431, Reference Example Compound 55:other compound 1:30, at ED50): 0.19
- Comprehensive Evaluation ([1]; A431): Strong

Structure (SMILES): COc1cc2nccc(Oc3ccc(NC(=O)NC4CC4)c(Cl)c3)c2cc1C(N)=O [Lenvatinib, lenvatinib]
- CI [1, 3]: 0.44
- CI [1, 4]: 0.63
- Comprehensive Evaluation ([1]; SNU-16): Synergism (0.3-0.7)

Structure (SMILES): Cc1ccc(NC(=O)c2ccc(CN3CCN(C)CC3)cc2)cc1Nc1nc(-c2cccnc2)cs1 [Masitinib, masitinib]
- CI ([1]; MOLT-4, Reference Example Compound 55:other compound 1:33, at ED50): 0.31
- CI ([1]; MOLT-4, Reference Example Compound 55:other compound 1:100, at ED50): 0.20
- Comprehensive Evaluation ([1]; MOLT-4): Synergism (0.3-0.7)

Structure (SMILES): C=CC(=O)Nc1cc(Nc2nccc(-c3cn(C)c4ccccc34)n2)c(OC)cc1N(C)CCN(C)C [Osimertinib, osimertinib]
- CI ([1]; NCI-H1975, Reference Example Compound 55:other compound 1:0.01, at ED50): 0.96
- CI ([1]; NCI-H1975, Reference Example Compound 55:other compound 1:0.03, at ED50): 0.99
- Comprehensive Evaluation ([1]; NCI-H1975): Additive (0.9-1.10)

Structure (SMILES): Cc1ccc(Nc2nccc(N(C)c3ccc4c(C)n(C)nc4c3)n2)cc1S(N)(=O)=O [Pazopanib, pazopanib]
- CI ([1]; SNU-16, Reference Example Compound 55:other compound 1:30, at ED50): 0.71
- CI ([1]; SNU-16, Reference Example Compound 55:other compound 1:90, at ED50): 0.52

Structure (SMILES): Cc1ccc(C(=O)Nc2ccc(CN3CCN(C)CC3)c(C(F)(F)F)c2)cc1C#Cc1cnc2cccnn12 [Ponatinib, ponatinib]
- CI [1]: 0.46 and 0.36

Structure (SMILES): CC(C)(C)c1cc(NC(=O)Nc2ccc(-c3cn4c(n3)sc3cc(OCCN5CCOCC5)ccc34)cc2)no1 [Quizartinib, quizartinib]
- CI ([1]; MOLT-4, Reference Example Compound 55:other compound 1:111, at ED50): 0.39
- CI ([1]; MOLT-4, Reference Example Compound 55:other compound 1:333, at ED50): 0.44
- Comprehensive Evaluation ([1]; MOLT-4): Synergism (0.3-0.7)

Structure (SMILES): Nc1ncnc2c1c(C#CCc1c(F)cccc1F)cn2[C@@H]1O[C@H](CNS(N)(=O)=O)[C@@H](O)[C@H]1O [Reference Example 31, 4-Amino-5-[3-(2,6-difluorophenyl)prop-1-ynyl]-7-[(2R,3R,4S,5R)-3,4-dihydroxy-5-[(sulfamoylamino)methyl]tetrahydrofuran-2-yl]pyrrolo[2,3-d]pyrimidine]
- IC50 [2]: 600 nM

Structure (SMILES): Nc1ncnc2c1c(C#Cc1c(F)cc(NCCO)cc1F)cn2[C@@H]1O[C@H](CNS(N)(=O)=O)[C@@H](O)[C@H]1O [Reference Example 32, 4-Amino-5-[2-[2,6-difluoro-4-(2-hydroxyethylamino)phenyl]ethynyl]-7-[(2R,3R,4S,5R)-3,4-dihydroxy-5-[(sulfamoylamino)methyl]tetrahydrofuran-2-yl]pyrrolo[2,3-d]pyrimidine]
- IC50 [2]: 2500 nM

Structure (SMILES): CCOc1cc(N2CCOCC2)cc(F)c1C#Cc1cn([C@@H]2O[C@H](CNS(N)(=O)=O)[C@@H](O)[C@H]2O)c2ncnc(N)c12 [Reference Example 34, 4-[4-[2-[4-Amino-7-[(2R,3R,4S,5R)-3,4-dihydroxy-5-[(sulfamoylamino)methyl]tetrahydrofuran-2-yl]pyrrolo[2,3-d]pyrimidin-5-yl]ethynyl]-3-ethoxy-5-fluoro-phenyl]morpholine]
- IC50 [2]: 6.1 nM

Structure (SMILES): CCOc1cc(F)cc(F)c1C#Cc1cn([C@@H]2O[C@H](CNS(N)(=O)=O)[C@@H](O)[C@H]2O)c2ncnc(N)c12 [Reference Example 35, 4-Amino-7-[(2R,3R,4S,5R)-3,4-dihydroxy-5-[(sulfamoylamino)methyl]tetrahydrofuran-2-yl]-5-[2-(2-ethoxy-4,6-difluoro-phenyl)ethynyl]pyrrolo[2,3-d]pyrimidine]
- IC50 [2]: 2 nM

Structure (SMILES): Nc1ncnc2c1c(C#CCc1ccccc1F)cn2[C@@H]1O[C@H](CNS(N)(=O)=O)[C@@H](O)[C@H]1O [Reference Example 36, 4-Amino-7-[(2R,3R,4S,5R)-3,4-dihydroxy-5-[(sulfamoylamino)methyl]tetrahydrofuran-2-yl]-5-[3-(2-fluorophenyl)prop-1-ynyl]pyrrolo[2,3-d]pyrimidine]
- IC50 [2]: 250 nM

Structure (SMILES): Nc1ncnc2c1c(C#Cc1c(F)cc(N3CCSCC3)cc1F)cn2[C@@H]1O[C@H](CNS(N)(=O)=O)[C@@H](O)[C@H]1O [Reference Example 37, 4-[4-[2-[4-Amino-7-[(2R,3R,4S,5R)-3,4-dihydroxy-5-[(sulfamoylamino)methyl]tetrahydrofuran-2-yl]pyrrolo[2,3-d]pyrimidin-5-yl]ethynyl]-3,5-difluoro-phenyl]thiomorpholine]
- IC50 [2]: 6 nM

Structure (SMILES): Nc1ncnc2c1c(C#Cc1c(F)cc(N3CCCC(O)C3)cc1F)cn2[C@@H]1O[C@H](CNS(N)(=O)=O)[C@@H](O)[C@H]1O (stereo partly drawn) [Reference Example 38, 4-Amino-5-[2-[2,6-difluoro-4-(3-hydroxy-1-piperidyl)phenyl]ethynyl]-7-[(2R,3R,4S,5R)-3,4-dihydroxy-5-[(sulfamoylamino)methyl]tetrahydrofuran-2-yl]pyrrolo[2,3-d]pyrimidine]
- IC50 [2]: 14 nM

Structure (SMILES): Nc1ncnc2c1c(C#Cc1c(F)cc(N3CCC3)cc1F)cn2[C@@H]1O[C@H](CNS(N)(=O)=O)[C@@H](O)[C@H]1O [Reference Example 43, 4-amino-5-[2-[4-(azetidin-1-yl)-2,6-difluoro-phenyl]ethynyl]-7-[(2R,3R,4S,5R)-3,4-dihydroxy-5-[(sulfamoylamino)methyl]tetrahydrofuran-2-yl]pyrrolo[2,3-d]pyrimidine]
- IC50 [2]: 2.7 nM

Structure (SMILES): CNC(=O)c1cc(Oc2ccc(NC(=O)Nc3ccc(Cl)c(C(F)(F)F)c3)c(F)c2)ccn1 [Regorafenib, regorafenib]
- CI ([1]; SNU-16, Reference Example Compound 55:other compound 1:15, at ED50): 0.88
- CI ([1]; SNU-16, Reference Example Compound 55:other compound 1:45, at ED50): 1.06
- Comprehensive Evaluation ([1]; SNU-16): Additive (0.9-1.10)

Structure (SMILES): N#CC[C@H](C1CCCC1)n1cc(-c2ncnc3[nH]ccc23)cn1 [Ruxolitinib, ruxolitinib]
- CI [1]: 0.82

Structure (SMILES): CCN(CC)CCNC(=O)c1c(C)[nH]c(/C=C2\C(=O)Nc3ccc(F)cc32)c1C [Sunitinib, sunitinib]
- CI [1, 3]: 0.86
- CI [1, 4]: 0.91
- Comprehensive Evaluation ([1]; SNU-16): Additive (0.9-1.10)
